# Measured values taken from ChEMBL document CHEMBL1144681, “Fluorination of triptolide and its analogues and their cytotoxicity” (Bioorg Med Chem Lett, 2008).
# Assays:
# HT-29 = assay: Cytotoxicity against human HT29 cells; format: functional, cell-based
# A549 = assay: Cytotoxicity against human A549 cells; format: functional, cell-based
SMILES,IC50 (HT-29) [ng/mL],IC50 (A549) [ng/mL]
CC(C)C1=C[C@]23O[C@H]2C[C@H]2C4=C(CC[C@]2(C)[C@@]32O[C@H]2[C@H]1F)C(=O)OC4,210,2200
CC(C)[C@]1(F)O[C@H]2[C@@H]3O[C@]34[C@]3(O[C@H]3C[C@H]3C5=C(CC[C@@]34C)C(=O)OC5)[C@H]21,72,997
CC(C)[C@]12O[C@@H]1[C@@H]1O[C@]13[C@]1(O[C@H]1C[C@H]1C4=C(CC[C@@]13C)C(=O)OC4)[C@@H]2F,0.06,0.42
CC(C)C1=C[C@]23O[C@H]2C[C@H]2C4=C(CC[C@]2(C)[C@@]32O[C@H]2[C@@H]1F)C(=O)OC4,150,1500
CC(C)C1=C[C@]23O[C@H]2C[C@H]2C4=C(CC[C@]2(C)[C@@]32O[C@H]2[C@@H]1O)C(=O)OC4,17,81
CC(C)[C@]12O[C@@H]1[C@@H]1O[C@]13[C@]1(O[C@H]1C[C@H]1C4=C(CC[C@@]13C)C(=O)OC4)[C@H]2F,0.24,3
CC(C)C(=O)[C@H]1[C@@H](O)[C@@H]2O[C@]23[C@]12O[C@H]2C[C@H]1C2=C(CC[C@@]13C)C(=O)OC2,86,> 1
CC(C)[C@]12O[C@H]1[C@@H]1O[C@]13[C@]1(O[C@H]1C[C@H]1C4=C(CC[C@@]13C)C(=O)OC4)[C@H]2O [EPITRIPTOIIDE],9.1,59
CC(C)[C@]12O[C@H]1[C@@H]1O[C@]13[C@]1(O[C@H]1C[C@H]1C4=C(CC[C@@]13C)C(=O)OC4)[C@@H]2O [TRIPTOLIDE],0.1,1.3
CC(C)[C@]12O[C@H]1[C@@H]1O[C@@]13[C@@]1(C)CCC4=C(COC4=O)[C@@H]1C[C@@H]1O[C@@]13C2=O [TRIPTONIDE],< 0.46,3.5
